Active and inactive are the calls of the source. The rule behind the calls is not given here.
System: rodent lifetime carcinogenesis bioassay, tumor incidence TD50
Experiment: carcinogenic potency in animals, long-term in vivo studies, CPDB compilation (AID 1745844)

With `Cc1cccc(C)c1` the TD50 (mouse, strain B6C3F1, females, by gavage, site: liver, lesion: hepatocellular adenoma + hepatocellular carcinoma + neoplastic nodule, dosed 103 weeks, study length 104 weeks) was 7040 mg/kg/day, the TD50 (mouse, strain B6C3F1, females, by gavage, site: lung, lesion: alveolar/bronchiolar adenoma + alveolar/bronchiolar carcinoma, dosed 103 weeks, study length 104 weeks) was 5130 mg/kg/day and the TD50 (mouse, strain B6C3F1, females, by gavage, site: thyroid gland, lesion: follicular-cell adenoma, dosed 103 weeks, study length 104 weeks) was 4790 mg/kg/day (inactive). The carcinogen call (mouse, strain B6C3F1, males, by gavage, site: any site (literature study), lesion: several types, types named in the paper, dosed 103 weeks, study length 104 weeks) was “negative (inactive)”, the TD50 (mouse, strain B6C3F1, males, by gavage, site: lung, lesion: alveolar/bronchiolar adenoma + alveolar/bronchiolar carcinoma, dosed 103 weeks, study length 104 weeks) was 7600 mg/kg/day and the TD50 (rat, strain Fischer 344, females, by gavage, site: any site (literature study), lesion: several types, types named in the paper, dosed 103 weeks, study length 104 weeks) was 1930 mg/kg/day. For the same compound, the TD50 (rat, strain Fischer 344, females, by gavage, site: liver, lesion: hepatocellular adenoma + hepatocellular carcinoma + neoplastic nodule, dosed 103 weeks, study length 104 weeks) was 51300 mg/kg/day, the TD50 (rat, strain Fischer 344, females, by gavage, site: mammary gland, lesion: adenoma, NOS, dosed 103 weeks, study length 104 weeks) was 4110 mg/kg/day (inactive) and the TD50 (rat, strain Fischer 344, males, by gavage, site: any site (literature study), lesion: several types, types named in the paper, dosed 103 weeks, study length 104 weeks) was 700 mg/kg/day (inactive). The TD50 (rat, strain Sprague-Dawley, females, by gavage, site: all sites, lesion: lymphoma and leukemia, combined, dosed 104 weeks, study length 123 weeks) was 4170 mg/kg/day, the TD50 (rat, strain Sprague-Dawley, females, by gavage, site: all sites, lesion: lymphoma and leukemia, combined, dosed 104 weeks, study length 141 weeks) was 5170 mg/kg/day and the TD50 (rat, strain Sprague-Dawley, females, by gavage, site: any site (literature study), lesion: malignant tumor, dosed 104 weeks, study length 123 weeks) was 1870 mg/kg/day. For the same compound, the TD50 (rat, strain Sprague-Dawley, females, by gavage, site: any site (literature study), lesion: malignant tumor, dosed 104 weeks, study length 141 weeks) was 524 mg/kg/day, the TD50 (rat, strain Sprague-Dawley, females, by gavage, site: any site (literature study), lesion: several types, types named in the paper, dosed 104 weeks, study length 141 weeks) was 304 mg/kg/day and the TD50 (rat, strain Sprague-Dawley, females, by gavage, site: ear duct, lesion: carcinoma, dosed 104 weeks, study length 123 weeks) was 18000 mg/kg/day. The TD50 (rat, strain Sprague-Dawley, females, by gavage, site: head, lesion: carcinoma, dosed 104 weeks, study length 123 weeks) was 5620 mg/kg/day, the TD50 (rat, strain Sprague-Dawley, females, by gavage, site: head, lesion: carcinoma, dosed 104 weeks, study length 141 weeks) was 2830 mg/kg/day and the TD50 (rat, strain Sprague-Dawley, females, by gavage, site: mammary tissue, wider than the gland, lesion: carcinoma, dosed 104 weeks, study length 141 weeks) was 1750 mg/kg/day. It also gave a TD50 (rat, strain Sprague-Dawley, females, by gavage, site: oral cavity, lesion: carcinoma, dosed 104 weeks, study length 123 weeks) of 5860 mg/kg/day, a TD50 (rat, strain Sprague-Dawley, males, by gavage, site: Zymbal's gland, lesion: carcinoma, dosed 104 weeks, study length 141 weeks) of 58400 mg/kg/day and a TD50 (rat, strain Sprague-Dawley, males, by gavage, site: all sites, lesion: lymphoma and leukemia, combined, dosed 104 weeks, study length 123 weeks) of 8150 mg/kg/day. For the same compound, the TD50 (rat, strain Sprague-Dawley, males, by gavage, site: all sites, lesion: lymphoma and leukemia, combined, dosed 104 weeks, study length 141 weeks) was 4170 mg/kg/day, the TD50 (rat, strain Sprague-Dawley, males, by gavage, site: any site (literature study), lesion: malignant tumor, dosed 104 weeks, study length 123 weeks) was 1820 mg/kg/day and the TD50 (rat, strain Sprague-Dawley, males, by gavage, site: any site (literature study), lesion: malignant tumor, dosed 104 weeks, study length 141 weeks) was 1670 mg/kg/day. For the same compound, the TD50 (rat, strain Sprague-Dawley, males, by gavage, site: any site (literature study), lesion: several types, types named in the paper, dosed 104 weeks, study length 123 weeks) was 4070 mg/kg/day, the TD50 (rat, strain Sprague-Dawley, males, by gavage, site: ear duct, lesion: carcinoma, dosed 104 weeks, study length 123 weeks) was 18300 mg/kg/day and the TD50 (rat, strain Sprague-Dawley, males, by gavage, site: head, lesion: carcinoma, dosed 104 weeks, study length 123 weeks) was 3440 mg/kg/day. It also gave a TD50 (rat, strain Sprague-Dawley, males, by gavage, site: head, lesion: carcinoma, dosed 104 weeks, study length 141 weeks) of 5170 mg/kg/day, a TD50 (rat, strain Sprague-Dawley, males, by gavage, site: oral cavity, lesion: carcinoma, dosed 104 weeks, study length 123 weeks) of 4440 mg/kg/day and a TD50 (rat, strain Sprague-Dawley, males, by gavage, site: oral cavity, lesion: carcinoma, dosed 104 weeks, study length 141 weeks) of 5820 mg/kg/day.

Work on `COC(=O)C1=CCCN(N=O)C1` yielded a TD50 (rat, strain Fischer 344, males, in drinking water, site: pancreas, exocrine, lesion: acinar-cell adenoma, dosed 128 weeks, study length 128 weeks) of 7.95 mg/kg/day.

In the case of `Clc1ccc(C(c2ccc(Cl)cc2)C(Cl)Cl)cc1`, the TD50 (mouse, strain B6AKF1, females, oral dosing, site: any site (literature study), lesion: several types, types named in the paper, dosed 76 weeks, study length 76 weeks) is reported as 37.4 mg/kg/day, the TD50 (mouse, strain B6AKF1, females, oral dosing, site: lung, lesion: adenoma, dosed 76 weeks, study length 76 weeks) is reported as 73 mg/kg/day and the TD50 (mouse, strain B6AKF1, males, oral dosing, site: any site (literature study), lesion: several types, types named in the paper, dosed 76 weeks, study length 76 weeks) is reported as 49 mg/kg/day. The TD50 (mouse, strain B6AKF1, males, oral dosing, site: lung, lesion: adenoma, dosed 76 weeks, study length 76 weeks) was 82.9 mg/kg/day, the TD50 (mouse, strain B6C3F1, females, in feed, site: any site (literature study), lesion: several types, types named in the paper, dosed 78 weeks, study length 90 weeks) was 108 mg/kg/day (inactive) and the TD50 (mouse, strain B6C3F1, females, in feed, site: liver, lesion: hepatocellular adenoma + hepatocellular carcinoma + neoplastic nodule, dosed 78 weeks, study length 90 weeks) was 493 mg/kg/day. The TD50 (mouse, strain B6C3F1, females, oral dosing, site: any site (literature study), lesion: several types, types named in the paper, dosed 76 weeks, study length 76 weeks) was 250 mg/kg/day, the TD50 (mouse, strain B6C3F1, females, oral dosing, site: lung, lesion: adenoma, dosed 76 weeks, study length 76 weeks) was 250 mg/kg/day and the TD50 (mouse, strain B6C3F1, males, in feed, site: any site (literature study), lesion: several types, types named in the paper, dosed 78 weeks, study length 90 weeks) was 997 mg/kg/day (inactive). The TD50 (mouse, strain B6C3F1, males, in feed, site: liver, lesion: hepatocellular adenoma + hepatocellular carcinoma + neoplastic nodule, dosed 78 weeks, study length 90 weeks) was 116 mg/kg/day, the TD50 (mouse, strain B6C3F1, males, oral dosing, site: any site (literature study), lesion: several types, types named in the paper, dosed 76 weeks, study length 76 weeks) was 34.8 mg/kg/day and the TD50 (mouse, strain B6C3F1, males, oral dosing, site: liver, lesion: hepatoma, dosed 76 weeks, study length 76 weeks) was 43.3 mg/kg/day. For the same compound, the TD50 (mouse, strain B6C3F1, males, oral dosing, site: lung, lesion: adenoma, dosed 76 weeks, study length 76 weeks) was 120 mg/kg/day, the TD50 (mouse, strain CF-1, females, in feed, site: any site (literature study), lesion: several types, types named in the paper, dosed 123 weeks, study length 123 weeks) was 67.1 mg/kg/day and the TD50 (mouse, strain CF-1, females, in feed, site: liver, lesion: hepatoma, dosed 123 weeks, study length 123 weeks) was 4830 mg/kg/day (inactive). The TD50 (mouse, strain CF-1, females, in feed, site: lung, lesion: several types, types named in the paper, dosed 123 weeks, study length 123 weeks) was 39.9 mg/kg/day, the TD50 (mouse, strain CF-1, males, in feed, site: any site (literature study), lesion: several types, types named in the paper, dosed 123 weeks, study length 123 weeks) was 33.2 mg/kg/day and the TD50 (mouse, strain CF-1, males, in feed, site: liver, lesion: hepatoma, dosed 123 weeks, study length 123 weeks) was 86.8 mg/kg/day. The TD50 (mouse, strain CF-1, males, in feed, site: lung, lesion: several types, types named in the paper, dosed 123 weeks, study length 123 weeks) was 24.9 mg/kg/day, the carcinogen call (rat, strain Osborne-Mendel, females, in feed, site: any site (literature study), lesion: several types, types named in the paper, dosed 78 weeks, study length 111 weeks) was “negative (inactive)” and the TD50 (rat, strain Osborne-Mendel, females, in feed, site: liver, lesion: hepatocellular adenoma + hepatocellular carcinoma + neoplastic nodule, dosed 78 weeks, study length 111 weeks) was 2080 mg/kg/day. It also gave a TD50 (rat, strain Osborne-Mendel, males, in feed, site: any site (literature study), lesion: several types, types named in the paper, dosed 78 weeks, study length 111 weeks) of 82.6 mg/kg/day and a TD50 (rat, strain Osborne-Mendel, males, in feed, site: thyroid gland, lesion: follicular-cell adenoma + follicular-cell carcinoma, dosed 78 weeks, study length 111 weeks) of 75.8 mg/kg/day.

With `CC1=C(C(=O)OC(C)C)C(c2cccc([N+](=O)[O-])c2)C(C(=O)OC2CN(C(c3ccccc3)c3ccccc3)C2)=C(N)N1` (configuration not stated) the carcinogen call (mouse, strain B6C3F1, females, by gavage, site: any site (literature study), lesion: several types, types named in the paper, dosed 78 weeks, study length 78 weeks) was “negative (inactive)”, the carcinogen call (mouse, strain B6C3F1, females, by gavage, site: liver, lesion: hepatocellular adenoma, dosed 78 weeks, study length 78 weeks) was “negative (inactive)” and the carcinogen call (mouse, strain B6C3F1, females, by gavage, site: liver, lesion: hepatocellular carcinoma, dosed 78 weeks, study length 78 weeks) was “negative (inactive)”. The TD50 (mouse, strain B6C3F1, females, by gavage, site: lung, lesion: alveolar/bronchiolar adenoma, dosed 78 weeks, study length 78 weeks) was 217 mg/kg/day (inactive), the carcinogen call (mouse, strain B6C3F1, females, by gavage, site: lung, lesion: alveolar/bronchiolar carcinoma, dosed 78 weeks, study length 78 weeks) was “negative (inactive)” and the TD50 (mouse, strain B6C3F1, males, by gavage, site: any site (literature study), lesion: several types, types named in the paper, dosed 78 weeks, study length 78 weeks) was 83.5 mg/kg/day (inactive). The carcinogen call (mouse, strain B6C3F1, males, by gavage, site: liver, lesion: hepatocellular adenoma, dosed 78 weeks, study length 78 weeks) was “negative (inactive)”, the carcinogen call (mouse, strain B6C3F1, males, by gavage, site: liver, lesion: hepatocellular carcinoma, dosed 78 weeks, study length 78 weeks) was “negative (inactive)” and the TD50 (mouse, strain B6C3F1, males, by gavage, site: lung, lesion: alveolar/bronchiolar adenoma, dosed 78 weeks, study length 78 weeks) was 65 mg/kg/day (inactive). The TD50 (mouse, strain B6C3F1, males, by gavage, site: lung, lesion: alveolar/bronchiolar carcinoma, dosed 78 weeks, study length 78 weeks) was 227 mg/kg/day (inactive), the carcinogen call (rat, strain F344/DuCrj, females, by gavage, site: any site (literature study), lesion: several types, types named in the paper, dosed 104 weeks, study length 104 weeks) was “negative (inactive)” and the carcinogen call (rat, strain F344/DuCrj, females, by gavage, site: liver, lesion: hepatocellular adenoma, dosed 104 weeks, study length 104 weeks) was “negative (inactive)”. The carcinogen call (rat, strain F344/DuCrj, females, by gavage, site: liver, lesion: hepatocellular carcinoma, dosed 104 weeks, study length 104 weeks) was “negative (inactive)”, the carcinogen call (rat, strain F344/DuCrj, males, by gavage, site: any site (literature study), lesion: several types, types named in the paper, dosed 104 weeks, study length 104 weeks) was “negative (inactive)” and the TD50 (rat, strain F344/DuCrj, males, by gavage, site: liver, lesion: hepatocellular adenoma, dosed 104 weeks, study length 104 weeks) was 117 mg/kg/day (inactive). For the same compound, the TD50 (rat, strain F344/DuCrj, males, by gavage, site: liver, lesion: hepatocellular carcinoma, dosed 104 weeks, study length 104 weeks) was 237 mg/kg/day (inactive).

`CCOc1ccc2c(c1)C(C)=CC(C)(C)N2` was tested, and the carcinogen call (rat, strain F344/DuCrj, males, in feed, site: esophagus, lesion: one or several types, types not named, dosed 52 weeks, study length 52 weeks) was “negative (inactive)”, the carcinogen call (rat, strain F344/DuCrj, males, in feed, site: forestomach, lesion: one or several types, types not named, dosed 52 weeks, study length 52 weeks) was “negative (inactive)” and the carcinogen call (rat, strain F344/DuCrj, males, in feed, site: liver, lesion: one or several types, types not named, dosed 52 weeks, study length 52 weeks) was “negative (inactive)”. The carcinogen call (rat, strain Fischer 344, females, in feed, site: kidney, lesion: one or several types, types not named, dosed 58 weeks, study length 58 weeks) was “negative (inactive)”, the carcinogen call (rat, strain Fischer 344, females, in feed, site: kidney, lesion: one or several types, types not named, dosed 78 weeks, study length 78 weeks) was “negative (inactive)” and the carcinogen call (rat, strain Fischer 344, males, in feed, site: kidney, lesion: one or several types, types not named, dosed 58 weeks, study length 58 weeks) was “negative (inactive)”. The carcinogen call (rat, strain Fischer 344, males, in feed, site: kidney, lesion: one or several types, types not named, dosed 78 weeks, study length 78 weeks) was “negative (inactive)”.

— PubChem BioAssay AID1745844 (Carcinogenic Potency Database (CPDB), 2022)
